Laboratory results published in paper PMC3636874, “An Antedrug of the CXCL12 Neutraligand Blocks Experimental Allergic Asthma without Systemic Effect in Mice” (The Journal of Biological Chemistry, 2013).

Columns and labels:
[1] = test system: inflammatory cell recruitment in the airways of OVA-sensitized and challenged BALB/c mice; assay: 8-day murine model of airway hypereosinophilia (OVA sensitization and challenge), cell counts in BALF; format: in vivo, mouse; conditions: intranasal 300 nmol/kg in 10% HP-βCD; for effect on eosinophil / inflammatory cell recruitment in BALF after OVA challenge, intranasal: 2 h before each challenge
Procedure: The in vivo activity of the compounds was assessed in an 8-day model of hypereosinophilia created by immunization and challenge to ovalbumin in mice. Briefly, 9-week-old male BALB/c mice were sensitized by intraperitoneal injection of a mixture of 50 μg of ovalbumin (OVA, grade V; Sigma-Aldrich) adsorbed on aluminum hydroxide (2 mg; Sigma-Aldrich) in 0.1 ml of saline on days 0, 1, and 2. Mice were challenged intranasally with 10 μg of OVA in 25 μl of saline (12.5 μl/nostril) on days 5, 6, and 7. Control mice received intraperitoneal and intranasal administrations of saline alone. Intranasal administrations were performed under anesthesia with 50 mg/kg ketamine and 3.33 mg/kg xylazine given intraperitoneally. Food and water were supplied ad libitum. Animal experimentation was conducted with the approval of the government body that regulates animal research in France. The chalcone compounds were administered either by the intraperitoneal or intranasal routes. In a first set of experiments, mice received either chalcone 4 or carbonitrile-chalcone 4 solubilized in PBS with 10% HP-βCD (C0926, Sigma) by intranasal injection 2 h before each nasal OVA or saline challenge. In a second set of experiments, mice received CN-chalcone 4, vanillin, or parachlorobenzoylacetonitrile intranasally, in PBS with HP-βCD 10%, 2 h before each OVA or saline challenge. In the last set of experiments, mice received chalcone 4 or CN-chalcone 4 in suspension in carboxymethylcellulose 1% or solubilized in PBS with HP-βCD 10% and administered by intraperitoneal injection 2 h before each OVA or saline challenge. Collection of bronchoalveolar lavage fluid (BALF) was performed 24 h after the last OVA challenge. Mice were deeply anesthetized by intraperitoneal injection of 150 mg/kg ketamine and 10 mg/kg xylazine. A plastic canula was inserted into the trachea, and airways were lavaged by 10 instillations of 0.5 ml of ice-cold saline supplemented with 2.6 mM EDTA (saline-EDTA). Total and differential cell counts in the BALF were performed after centrifugation (300 × g for 5 min at 4 °C) to pellet cells. Erythrocytes were lysed by hypotonic shock by the addition of 1.5 ml of distilled H2O, followed by the addition of 0.5 ml of 0.6 M KCl. Cells were centrifuged and resuspended in 500 μl of ice-cold saline-EDTA, and total cell counts were determined using a hemocytometer (Neubauer's chamber). Differential cell counts were assessed on cytologic preparation obtained by cytocentrifugation (Cytospin 3, Shandon Ltd.) of 200 μl of diluted BALF (250,000 cells/ml in ice-cold saline-EDTA). Slides were stained with Hemacolor (Merck), and counts were performed on at least 400 cells for each preparation. Differential counts were expressed as absolute numbers or as a percentage of the total number of cells.
The in vivo activity of CN-chalcone 4 was assayed in a recently developed 8-day mouse model of airway hypereosinophilia ([24]). In this model, mice are sensitized by intraperitoneal injection of OVA (50 μg) adsorbed on 2 mg of aluminum hydroxide in 0.1 ml of saline on days 0, 1, and 2. Mice are then challenged intranasally with 10 μg of OVA in 25 μl of saline (12.5 μl/nostril) on days 5, 6, and 7. Drugs to be tested can be administered either systemically by the intraperitoneal route or locally by the intranasal route. The intranasal route mimics the inhalation exposure used in humans, which is the preferred and well accepted administration for inflamed airway treatment, in particular asthma. Thus, unless otherwise stated, drugs were administered intranasally in this study. Due to limited solubility of chalcone 4 (9 ± 1 μM) and CN-chalcone 4 (16 ± 2 μM) in saline buffer, drugs were dissolved in physiological solutions complemented with HP-βCD (10%, w/w). Under such conditions, chalcone 4 and CN-chalcone 4 could be dissolved at maximal concentrations reaching 690 ± 44 and 493 ± 36 μM, respectively.

CXCL12 binding to CXCR4 [2] = target: T1, CXCL12 binding to CXCR4 (Homo sapiens, UniProt P48061); parameters: method as in PMID 18556651; conditions: cited from earlier work
T1 construct: expressed in transfected cells

CXCL12 binding to CXCR4 [3] = target: T1, CXCL12 binding to CXCR4; assay: FRET-based binding of CXCL12-TR to EGFP-hCXCR4 (competition); conditions: concentrations up to 10 μM
Procedure: FRET-based binding experiments were carried out as described ([26], [46]). Human embryonic kidney 293 cells expressing the fusion receptor EGFP-hCXCR4 were harvested in PBS (137 mM NaCl, 2.7 mM KCl, 4.3 mM Na2PO4·7H2O, 1.4 mM KH2PO4, pH 7.4) supplemented with 5 mM EDTA, pH 7.4, centrifuged, and resuspended in HEPES-bovine serum albumin (BSA) buffer (10 mM HEPES, 137.5 mM NaCl, 1.25 mM MgCl2, 1.25 mM CaCl2, 6 mM KCl, 10 mM glucose, 0.4 mM NaH2PO4, 0.1% bovine serum albumin (w/v), pH 7.4). Cells were used at a concentration of 10^6 cells/ml. Apparent affinities of the different ligands were determined by real-time fluorescence monitoring ligand-receptor interactions. […] Fluorescence emitted at 510 nm (excitation at 470 nm) was recorded at 21 °C using a Fluorolog 2 spectrofluorimeter (SPEX) and sampled every 0.3 s. Binding of CXCL12-TR to EGFP-labeled CXCR4 was detected as a reversible decline of emission at 510 nm, due to energy transfer from excited EGFP to TR. For competition experiments, the fluorescent chemokine was preincubated for 1 h at room temperature with or without various concentrations of each chalcone. Then the premix was added, and fluorescence was recorded until equilibrium was reached (300 s). Data were analyzed using Kaleidagraph 3.08 software (Synergy Software, Reading, PA).

## O=C(/C=C/c1ccccc1)c1ccccc1 [chalcone 1, reference compound]
[1]
  effect on eosinophil / inflammatory cell recruitment in BALF after OVA challenge, intranasal: nor does it significantly attenuate eosinophil or any other inflammatory cell recruitment in the airways
[1]; no OVA challenge
  cell recruitment in the airways elicited by compound itself (saline-challenged mice), intranasal: does not promote any inflammatory response per se
CXCL12 binding to CXCR4 [2]
  activity upon CXCL12 binding to CXCR4: inactive

## N#CCC(=O)c1ccc(Cl)cc1 [pCBA, para-chlorobenzoylacetonitrile]
CXCL12 binding to CXCR4 [3]
  binding-neutralizing activity (CXCL12-TR binding to EGFP-CXCR4): Neither vanillin nor pCBA exhibits any binding-neutralizing activity
[1]
  effect on eosinophil / inflammatory cell recruitment in BALF after OVA challenge, intranasal: no effect on eosinophil recruitment in the airways

## COc1cc(C=O)ccc1O [vanillin]
CXCL12 binding to CXCR4 [3]
  binding-neutralizing activity (CXCL12-TR binding to EGFP-CXCR4): Neither vanillin nor pCBA exhibits any binding-neutralizing activity
[1]
  effect on eosinophil / inflammatory cell recruitment in BALF after OVA challenge, intranasal: no effect on eosinophil recruitment in the airways
